We go through 3 substances from patent publication US7361633B2, “Screening method and anti-tumor drug candidate obtained therefrom” (Ardana Bioscience Limited, priority 2002, dated 2008).

Assay [1] has as its target T1, marmoset Type II GnRH receptor (Callithrix jacchus, UniProt Q95MG6).
T1 construct: expressed in transfected cells
T1 sequence (Q95MG6 1-380): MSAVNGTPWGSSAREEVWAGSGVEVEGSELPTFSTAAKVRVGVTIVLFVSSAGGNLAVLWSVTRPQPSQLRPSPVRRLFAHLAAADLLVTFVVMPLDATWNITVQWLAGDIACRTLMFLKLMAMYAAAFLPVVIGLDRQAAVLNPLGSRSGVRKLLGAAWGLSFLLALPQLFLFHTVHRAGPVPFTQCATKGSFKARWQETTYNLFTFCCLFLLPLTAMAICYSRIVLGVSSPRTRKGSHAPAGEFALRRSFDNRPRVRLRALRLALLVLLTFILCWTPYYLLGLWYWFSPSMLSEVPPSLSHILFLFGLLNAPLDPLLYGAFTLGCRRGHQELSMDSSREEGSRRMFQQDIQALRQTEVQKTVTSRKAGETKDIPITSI
Nature of the assay: Inositol phosphate accumulation in αT4-II cells. The format is cell-based. The settings on record: GnRH II 10 nM. The procedure:
The histograms in panels a and b represent inositol phosphate accumulation data from HEK293 cells stably expressing the Type I GnRH receptor only (SCL60). […] In panels c and d, the liberated inositol phosphates generated were measured in the proto-gonadotrope cells (αT4) stably expressing the marmoset Type II GnRH receptor (designated αT4-II).
The ability of the four major agents under study at activating ectopically expressed Type I or Type II GnRHR were tested (FIG. 12). The classical signal transduction cascade activated by GnRHR stimulation is the Gαq-PLC-β cascade. Both Type I and II receptor can stimulate the Gαq-PLC type-G-protein and activate PLC-β which cleaves phosphatidylinositol bisphosphate (PIP2) into inositol trisphosphate (IP3), other lower inositol phosphates (IPn) and diacylglycerol (DAG). The major function of IP3 is to elevate intracellular Ca^2+ while DAG causes the activation of specific PKC (protein kinase C) isoforms.
Panels a and b of FIG. 12 depict the generation of free cytoplasmic ^3H-myo-inositols on the plasma membranes of HEK293 cells expressing the Type I GnRHR and of αT4 gonadotropes expressing the marmoset Type II GnRHR. Prior to agonist stimulation the respective cells were incubated in inositol-free growth media supplemented with 1 μCi/ml ^3H-myoinositol for 48 h. G protein coupled receptor (GPCR)-induced activation of PLC-β results in the cleavage of PIP2 (incorporating tritium ^3H) into free lower inositol phosphates (IPns).

For assay [2], the system named is PLC-β. Put plainly: Inositol phosphate accumulation in BPH-1 cells. The format is cell-based, human. The settings on record: for inositol phosphate accumulation: 60 minutes, 10 mM LiCl, doses up to 50 μM. The procedure:
BPH-1 cells were pre-incubated with ^3H-myoinositol (1 μCi/ml) for 48 h prior to ligand stimulation (60 minutes). Ligand stimulated inositol phosphate production was measured in the presence of 10 mM LiCl. […] IP accumulation can be used as a read out/marker for Gαq activation since the activation of PLCβ is PTX-resistant.

Assay [3] has as its system Gαi-type G protein. Nature of the assay: Inhibition of forskolin-stimulated cAMP accumulation in JEG-3 cells. The format is cell-based, human. The settings on record: for FSK-stimulated intracellular cAMP accumulation after ligand pre-exposure: 100 nM, pre-exposure 10, 30, 60 minutes; for effect of PTX on ligand-mediated inhibition of FSK-stimulated cAMP accumulation: 60 minute pre-exposure, PTX 200 ng/ml 16 h. From the text:
In both BPH-1 and JEG-3 cells GnRH and Ant 135-25 can antagonize forskolin (FSK) stimulated intracellular cAMP accumulation. Panels a and b respectively depict the effects of FSK, GnRH I and Ant 135-25 upon intracellular levels of cAMP in BPH-1 and JEG-3 cells measured using a calorimetric Biomol cAMP assay kit. […] Each histogram in panels a to d depicts the mean±s.e. mean of three to four experimental replicates of the cAMP accumulation assay.
Thus we noted that when cyclic adenosine monophosphate levels (cAMP) were measured using a commercially available […] assay system (Biomol) the ability of forskolin (1 μM in JEG-3 and 3 μM in BPH-1, sufficient to give a 50% Rmax response in each case) was blunted with extended cellular pre-treatment times (10 to 60 minutes) with either 100 nM GnRH I or Ant 135-25 (FIG. 9, panel a-BPH, panel b-JEG). […] Therefore it appears that both ligands can efficiently activate the adenylate cyclase inhibitory activity of Gαi in both cell models tested.

“Also recorded” adds a separate entry of the source.

As for “Ac-D-Nal(2)-D-4-ClPhe-D-Pal-Ser-Ile-D-IsopropylLys-Leu-IsopropylLys-Pro-D -AlaNH2 [Ant 135-18]”, the “agonistic activity: liberated inositol phosphates at marmoset Type II GnRH receptor” value is “considerable partial agonistic activity; also recorded: dose-dependent agonistic activity” in assay [1] and “only the Type II receptor was activated by 135-18” in assay [1] (listed as 135-18).
As for “GnRH I: Gonadotropin-Releasing Hormone, a decapeptide; the original form of GnRH, re-named GnRH I”, the inositol phosphate accumulation result in assay [2] was “only high doses of GnRH I and Ant 135-25 cause any significant accumulation of inositol phosphates; also recorded: small capacity to induce inositol phosphate accumulation”. The “effect of pertussis toxin pre-incubation on induced inositol phosphate accumulation” value in assay [2] (PTX 200 ng/ml 16 h, GnRH I 50 μM) is “abrogated by a 16 h pre-incubation of the BPH-1 cells with 200 ng/ml of pertussis toxin”. In addition, in assay [3], the “FSK-stimulated intracellular cAMP accumulation after ligand pre-exposure” value is on record as “significantly reduced; also recorded: blunted” and the “effect of PTX on ligand-mediated inhibition of FSK-stimulated cAMP accumulation” value is listed as “can be specifically inhibited with a 16 h pre-incubation of the cells with 200 ng/ml of PTX; also recorded: attenuated by a 16 h pre-treatment with 200 ng/ml PTX”.
As to “Ac-D-Nal(2)-D-4-ClPhe-D-Pal-Ser-1-MePal-D-IsopropylLys-Leu-IsopropylLys-Pro-D-AlaNH2 [Ant 135-25]”, the inositol phosphate accumulation entry in assay [2] was “only high doses of GnRH I and Ant 135-25 cause any significant accumulation of inositol phosphates; also recorded: small capacity to induce inositol phosphate accumulation”. Moreover, the “agonistic activity: liberated inositol phosphates at marmoset Type II GnRH receptor” value in assay [1] was “do not cause any liberation of free inositol phosphates”; in assay [1] (listed as 135-25), “no IPn-generating capacity”; in assay [1] (listed as Ant135-25), “no partial activity at all; also recorded: fails to show any agonistic activity at the Type II marmoset GnRHR”; in assay [1] (listed as antagonist 135-25) it was “failed to generate significant free inositol phosphate”. Moreover, the “FSK-stimulated intracellular cAMP accumulation after ligand pre-exposure” value in assay [3] is given as “significantly reduced; also recorded: blunted”. For the same substance, the “effect of PTX on ligand-mediated inhibition of FSK-stimulated cAMP accumulation” value in assay [3] is “can be specifically inhibited with a 16 h pre-incubation of the cells with 200 ng/ml of PTX; also recorded: attenuated by a 16 h pre-treatment with 200 ng/ml PTX”.
